Results as given in patent US4875922A, “Pyrimidine derivatives” (Imperial Chemical Industries PLC, priority 1986, dated 1989).

Columns and labels:
Barley = assay: Whole plant screen for plant growth regulator activity, barley (BR); format: in vivo, Barley (Atem); details: for G = Greening effect / I = Interligular or internodal length reduction / R = Retardation / T = Tillering or side shooting: BR, 4000 ppm (4 kg/ha), visual score after 2-6 weeks; for T = Tillering or side shooting: * = decrease in tillering
In short: (§1)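 Growth-regulator effects were judged by eye on glasshouse plants 2-6 weeks post-spray (timing varying with season), using formulation blanks for comparison. Application rate was 4000 ppm, equivalent to 4 kg/ha in 1000 l/ha.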

Wheat = assay: Whole plant screen for plant growth regulator activity, wheat (WW); format: in vivo, Wheat (Timmo); details: WW, 4000 ppm (4 kg/ha), visual score after 2-6 weeks; for T = Tillering or side shooting: * = decrease in tillering
In short: as §1

Rice [1] = assay: Whole plant screen for plant growth regulator activity, rice (RC); format: in vivo, Rice (Ishikari); details: 4000 ppm (4 kg/ha), visual score after 2-6 weeks; for T = Tillering or side shooting: * = decrease in tillering
In short: as §1

Maize = assay: Whole plant screen for plant growth regulator activity, maize (MZ); format: in vivo, Maize (Earliking); details: 4000 ppm (4 kg/ha), visual score after 2-6 weeks
In short: as §1

Apple = assay: Whole plant screen for plant growth regulator activity, apple (AP); format: in vivo, Apple (Red Delicious); details: 4000 ppm (4 kg/ha), visual score after 2-6 weeks
In short: as §1

Rice [2] = assay: Intermediate Retardant Test, rice; format: in vivo, Rice (Ishikari); details: Oryza sativa, 672 h, overall spray, approximately 28 days, Table VI, read-out: Percentage Reduction in Height of Rice (Compared to formulation blank)
In short: (§2)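 Overall spray at 500 and 2000 ppm (0.5 and 2 kg/ha^-1 at 1000 l/ha^-1); for apples, a 2000 ppm foliar-only spray was also compared with a 2000 ppm root drench. Rice grew in flooded 4" paddy pots, barley and apples in 4" pots. About 28 days after treatment, height (to top-most ligule, or to apex for apples) was recorded as % reduction versus formulation blank.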

Spring Barley = assay: Intermediate Retardant Test, spring barley; format: in vivo, Spring Barley (Atem/kym); details: Hordeum vulgare, 672 h, overall spray, approximately 28 days, Table VII, read-out: Percentage Reduction in Height of Spring Barley (Compared to formulation blank)
In short: as §2

Apples [3] = assay: Intermediate Retardant Test, apples, overall spray; format: in vivo, Apples (Red Delicious); details: approximately 28 days, Table VIII
From the text: Three species are involved in this test RICE, SPRING-BARLEY and APPLES. The variety and growth stages at spray are outlined in Table V. Compounds were applied at 500 ppm and 2000 ppm respectively (0.5 kg and 2 kg/ha^-1 at a field volume of 1000 l/ha^-1) as an overall spray except in the case of certain tests on APPLES. This gives a foliar and root component in the test, i.e., this test will detect the activity of both root and foliar acting compounds. The intermediate retardant test on APPLES of which the results are given in Table IX was different, in that a foliar (only) spray at 2000 ppm was compared with a root drench, also at 2000 ppm. The rice was grown in 4" `paddy` pots, i.e., the roots and bottom of the stems are immersed in water under conditions corresponding to those in paddy fields. Spring barley and apples were grown in 4" pots. The plants were assessed for height to top-most ligule at approximately 28 days after treatment for spring barley and rice and for height to apex at approximately 28 days after the treatment for apples. In each case the result for the 500 ppm and 2000 ppm test for each compound is compared to the height of the formulation blank in that test, presented as a percentage reduction in height compared to the formulation blank.

Erysiphe graminis = assay: Foliar fungal disease control, Erysiphe graminis (barley); format: in vivo; details: 100 ppm spray plus root drench (approximately 40 ppm a.i/dry soil); inoculated 24 hours before treatment
Pyricularia oryzae = format: in vivo; details: 100 ppm spray plus root drench (approximately 40 ppm a.i/dry soil), one or two days before inoculation
Cercospora arachidicola = assay: Foliar fungal disease control, Cercospora arachidicola (peanut); format: in vivo; details: 100 ppm spray plus root drench (approximately 40 ppm a.i/dry soil), one or two days before inoculation
Plasmopara viticola = assay: Foliar fungal disease control, Plasmopara viticola (vine); format: in vivo; details: 100 ppm spray plus root drench (approximately 40 ppm a.i/dry soil), one or two days before inoculation
Puccinia recondita = assay: Foliar fungal disease control, Puccinia recondita (wheat); format: in vivo; details: 100 ppm spray plus root drench (approximately 40 ppm a.i/dry soil), one or two days before inoculation
Phytophthora infestans = format: in vivo; details: 100 ppm spray plus root drench (approximately 40 ppm a.i/dry soil), one or two days before inoculation
Tomato = assay: Whole plant screen for plant growth regulator activity, tomato (TO); format: in vivo, Tomato (Ailsa Craig); details: 4000 ppm (4 kg/ha), visual score after 2-6 weeks
In short: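 Plant growth regulation scored visually 2–6 weeks post-spray, relative to formulation-blank controls, with growth at 25/22 °C day/night under 16 h light. Treatment: 4000 ppm (4 kg/ha, 1000 l/ha volume) track-sprayed onto Ailsa Craig tomato at the 2–2½ leaf stage, grown singly in 3-inch peat pots.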

Apples [4] = assay: Intermediate Retardant Test, apples, foliar spray compared with root drench; format: in vivo, Apples (Red Delicious); details: 672 h, approximately 28 days, Table IX, read-out: Percentage Reduction in Height of Apples (Compared to formulation blank); for percent reduction in plant height at 2000 ppm: 2000 ppm (Foliar); for percent reduction in plant height at 2000 µg/mL: soil, 2000 pmm (Root), root drench
In short: as §2

Venturia inaequalis = assay: Foliar fungal disease control, Venturia inaequalis (apple); format: in vivo; details: 100 ppm spray plus root drench (approximately 40 ppm a.i/dry soil), one or two days before inoculation

| SMILES | G = Greening effect (Barley) | I = Interligular or internodal length reduction (Barley) | R = Retardation (Barley) | R = Retardation (Wheat) | T = Tillering or side shooting (Wheat) | G = Greening effect (Rice [1]) | I = Interligular or internodal length reduction (Rice [1]) | R = Retardation (Rice [1]) | I = Interligular or internodal length reduction (Apple) | R = Retardation (Apple) | Percent reduction in rice height vs formulation blank at 500 ppm (Rice [2]) [%] | Percent reduction in rice height vs formulation blank at 2000 ppm (Rice [2]) [%] | percent reduction in plant height at 500 ppm (Spring Barley) [%] | percent reduction in plant height at 2000 ppm (Spring Barley) [%] | disease control, ERYSIPHE GRAMINIS (BARLEY) (Erysiphe graminis) | disease control, P[…] (RICE) (Pyricularia oryzae) | disease control, CERCOSPORA ARACHIDICOLA (PEANUT) (Cercospora arachidicola) | disease control, PLASMOPARA VITICOLA (VINE) (Plasmopara viticola) | disease control, PUCCINIA RECONDITA (WHEAT) (Puccinia recondita) | disease control, PH[…] (TOMATO) (Phytophthora infestans) | further results |
| --- | --- | --- | --- | --- | --- | --- | --- | --- | --- | --- | --- | --- | --- | --- | --- | --- | --- | --- | --- | --- | --- |
| CCCCC#CC(O)(c1cncnc1)C(C)C (stereo not shown) [Compound 1, 2-methyl-1-(hex-1-yne)-1-(pyrimidin-5-yl)-propan-1-ol] | 2 (31-60%) | 3 (61-100%) | 3 (61-100%) | 3 (61-100%) | 2 (31-60%) | 2 (31-60%) | 3 (61-100%) | 2 (31-60%) | 3 (61-100%) | 3 (61-100%) | 6.06 | 23 | 1.3 | 12.1 | 4 | 0 (60-100% of disease on untreated plants) | 0 (60-100% of disease on untreated plants) | 0 (60-100% of disease on untreated plants) | 0 (60-100% of disease on untreated plants) | 0 (60-100% of disease on untreated plants) | T = Tillering or side shooting (Barley): 1 (10-30%); G = Greening effect (Wheat): 1 (10-30%); T = Tillering or side shooting (Rice [1]): 3 (61-100%); I = Interligular or internodal length reduction (Maize): 2 (31-60%); R = Retardation (Maize): 2 (31-60%); T = Tillering or side shooting (Apple; * = decrease in tillering): 1 (10-30%); Percentage Reduction in Height of Apples (Compared to formulation blank) (Apples [3]; 500 ppm): 10.8%; Percentage Reduction in Height of Apples (Compared to formulation blank) (Apples [3]; 2000 ppm): 39.2% |
| CC(C)CC#CC(O)(c1cncnc1)C(C)(C)C (stereo not shown) [Compound 16] | 2 (31-60%) | 2 (31-60%) | 3 (61-100%) | 3 (61-100%) | 3 (61-100%) | 2 (31-60%) | 3 (61-100%) | 3 (61-100%) | 3 (61-100%) | 3 (61-100%) | 59 | 65 | 66 | 88 | 4 | 3 (trace - 5% of disease on untreated plants) | 4 | 0 (60-100% of disease on untreated plants) | 3 (trace - 5% of disease on untreated plants) | 0 (60-100% of disease on untreated plants) | G = Greening effect (Wheat): 2 (31-60%); I = Interligular or internodal length reduction (Wheat): 3 (61-100%); T = Tillering or side shooting (Rice [1]): 1 (10-30%); G = Greening effect (Maize): 2 (31-60%); I = Interligular or internodal length reduction (Maize): 3 (61-100%); R = Retardation (Maize): 3 (61-100%); T = Tillering or side shooting (Maize; * = decrease in tillering): 1 (10-30%); G = Greening effect (Apple): 3 (61-100%); G = Greening effect (Tomato): 2 (31-60%); I = Interligular or internodal length reduction (Tomato): 3 (61-100%); R = Retardation (Tomato): 3 (61-100%); percent reduction in plant height at 2000 ppm (Apples [4]): 6%; percent reduction in plant height at 2000 µg/mL (Apples [4]): 47%; disease control, VENTURIA INAEQUALIS (APPLE) (Venturia inaequalis): 4 |
| CC(C)(C)C(O)(C#CCCCCl)c1cncnc1 (stereo not shown) [Compound 19, 2,2-Dimethyl-1-(5-chloropent-1-yne)-1-(pyrimidin-5-yl)-propan-1-ol] | 1 (10-30%) | 3 (61-100%) | 3 (61-100%) | 3 (61-100%) | 3 (61-100%) | 2 (31-60%) | 3 (61-100%) | 2 (31-60%) | 3 (61-100%) | 3 (61-100%) | 11 | 39 | 31 | 57 | 4 | 0 (60-100% of disease on untreated plants) | 4 | 0 (60-100% of disease on untreated plants) | 4 | 0 (60-100% of disease on untreated plants) | A = Apical damage (Barley; 4000 ppm): 3 (61-100%); T = Tillering or side shooting (Barley): 3 (61-100%); I = Interligular or internodal length reduction (Wheat): 3 (61-100%); G = Greening effect (Apple): 1 (10-30%); G = Greening effect (Tomato): 2 (31-60%); I = Interligular or internodal length reduction (Tomato): 2 (31-60%); R = Retardation (Tomato): 2 (31-60%); percent reduction in plant height at 2000 ppm (Apples [4]): 54%; percent reduction in plant height at 2000 µg/mL (Apples [4]): 65% |
